Like-named read-outs stand apart in the source and are kept apart here. Bounds are passed on as bounds.

Assay [1] deals with human A549 non-small cell lung cancer (NSCLC). Put plainly: MTT antiproliferative assay, A549. The format is cell-based. The note with it: for GI50: 72 h treatment, MTT assay, sextuplicates, read-out: GI50 in vitro values, A549. As to the method: (§1) Human mammary carcinoma MCF-7 (ATCC HTB22) cells were cultured in RPMI supplemented with 10% FBS. The U87 cells (ATCC HTB-14) were cultured in DMEM culture medium, while the A549 cells (DSMZ ACC107) were cultured in RPMI culture medium supplemented with 10% heat-inactivated FBS. The GBM Hs683 (ATCC HTB-138) cells were cultivated in DMEM supplemented with 10% FBS. The human uterine sarcoma MES-SA (ATCC CRL1966) and MES-SA/D×5 cells were cultured in RPMI-1640 medium supplemented with 10% FBS with MES SA/D×5 maintained in the presence of 500 nM Doxorubicin (Sigma). SKMEL-28 cells (ATCC HTB72) and U373 GBM cells (ECACC 08061901) were cultured in RPMI culture medium supplemented with 10% heat-inactivated FBS. Cell culture media were supplemented with 4 mM glutamine (Lonza code BE17-605E), 100 μg/mL gentamicin (Lonza code 17-5182), and penicillin-streptomycin (200 units/ml and 200 μg/ml) (Lonza code 17-602E). The MDA-MB-231 (ATCC HTB-26) epithelial mammary adenocarcinoma cells were cultured in Eagle's minimum essential medium (EMEM; Invitrogen) containing 5% fetal calf serum (FCS, Cambrex), 2 mM L-glutamine (Invitrogen), 0.06% HEPES (Invitrogen) and penicillin (50 IU/ml)/streptomycin (50 µg/ml; Invitrogen) at 37° C. in a humidified atmosphere of 5% CO2 in air. Transformed mouse NPCs were cultured in suspension under neurosphere conditions at 37° C. in a humidified atmosphere of […] and 5% CO2 in DMEM F12 (Invitrogen 11320-074) supplemented with 1×B27 supplement (Invitrogen 17504-044), 5% penicillin-streptomycin (Biochrom 10378-017), 10 ng/ml EGF (R&D systems 236-EG), 10 ng/ml FGF (PeproTech 100-18B).
(§2) Antiproliferative properties of the synthesized compounds were evaluated by the MTT assay. All compounds were dissolved in DMSO at a concentration of either 100 μM or 50 μM prior to cell treatment. The cells were trypsinized and seeded at various cell concentrations depending on the cell type. The cells were grown for 24 h to 72 h, treated with compounds at concentrations ranging from 0.001 to 100 μM and incubated for 48 or 72 h in 100 or 200 μL media depending on the cell line used. The number of experiments and replicates varied depending on the cell line. Cells treated with 0.1% DMSO were used as a negative control; 1 μM PAO was used as a positive control.
(§3) The synthesized C12-Wittig derivatives were evaluated for antiproliferative activities in a panel of cancer cell lines that included apoptosis-resistant human U373 glioblastoma (GBM) (Lefranc et al., 2013), human A549 non-small cell lung cancer (NSCLC) and human SKMEL-28 melanoma (Mathieu et al., 2009) as well as apoptosis-sensitive human Hs683 anaplastic oligodendroglioma (Lefranc et al., 2013) and human MCF-7 breast cancer (Frolova et al., 2013).

Assay [2] has as its system human Hs683 anaplastic oligodendroglioma. Put plainly: MTT antiproliferative assay, Hs683. To be noted: sextuplicates, read-out: GI50 in vitro values, Hs683. It counts as cell-based. As to the method:
as §1, §2, §3
A general note: Tetrazolium assays rely on reduction of a dye to a coloured formazan, in cell work by metabolically active cells.

Assay [3] relates to panel of cancer cell lines (A549, SKMEL-28, MCF-7, U373, Hs683). Put plainly: MTT antiproliferative assay, panel of five cancer cell lines. The format is cell-based, human. To be noted: for GI50: mean over five cell lines, 72 h treatment, MTT assay, read-out: GI50 in vitro values, Mean + SEM. As to the method:
as §2, §3

Assay [4] deals with T1, vanilloid site of TRPV1 receptor from rats spinal cord membranes (Rattus norvegicus, UniProt O35433).
T1 construct: from tissue; host or cells: rat spinal cord membranes
T1 sequence (O35433 whole entry): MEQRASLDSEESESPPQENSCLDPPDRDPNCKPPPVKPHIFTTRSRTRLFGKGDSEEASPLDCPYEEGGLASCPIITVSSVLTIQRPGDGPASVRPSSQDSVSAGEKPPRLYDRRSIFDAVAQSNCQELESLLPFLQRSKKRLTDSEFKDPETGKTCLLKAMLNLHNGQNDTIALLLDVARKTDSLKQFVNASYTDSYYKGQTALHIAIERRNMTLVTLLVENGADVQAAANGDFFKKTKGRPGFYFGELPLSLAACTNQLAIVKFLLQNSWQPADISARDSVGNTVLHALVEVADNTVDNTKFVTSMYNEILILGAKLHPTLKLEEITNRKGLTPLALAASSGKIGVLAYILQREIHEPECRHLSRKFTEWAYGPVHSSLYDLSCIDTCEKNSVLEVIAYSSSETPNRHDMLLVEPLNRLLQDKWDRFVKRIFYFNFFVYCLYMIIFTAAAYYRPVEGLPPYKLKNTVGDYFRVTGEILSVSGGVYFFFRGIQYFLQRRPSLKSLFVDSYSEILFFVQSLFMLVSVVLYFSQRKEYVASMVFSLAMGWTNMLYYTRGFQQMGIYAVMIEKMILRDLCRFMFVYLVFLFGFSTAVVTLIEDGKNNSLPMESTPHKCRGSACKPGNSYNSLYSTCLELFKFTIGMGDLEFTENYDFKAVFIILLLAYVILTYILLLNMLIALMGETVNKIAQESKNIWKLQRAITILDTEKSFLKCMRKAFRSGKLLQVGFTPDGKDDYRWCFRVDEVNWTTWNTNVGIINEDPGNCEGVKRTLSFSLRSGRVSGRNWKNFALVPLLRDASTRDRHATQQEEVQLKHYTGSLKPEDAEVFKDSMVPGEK
Kind of assay: [3H]-resiniferatoxin binding assay. The note with it: 2 nM [3H]-RTX. As to the method:
To evaluate the possible affinity of different analogues to the vanilloid site of TRPV1, a [^3H]-resiniferatoxin ([^3H]-RTX) binding assay was performed as previously described (Galli et al. 2004 and Lee et al., 2006). Briefly, rats spinal cord were homogenized in buffer A (pH 7.4, 5 mM KCl, 5.8 mM NaCl, 2 mM MgCl2, 0.75 mM CaCl2, 137 mM sucrose, and 10 mM HEPES) and centrifuged for 10 minutes at 1000 g at 4° C. and the supernatant was further centrifuged for 30 min at 35,000 g at 4° C. The resulting pellets were than resuspended in buffer A and frozen until assayed. The binding reaction was performed in a final volume of 500 μL, containing buffer A (plus 0.25 mg/mL bovine serum albumin, BSA), membranes (0.5 mg/mL), and 2 nM [^3H]-RTX in the presence or absence of analogues of 1 (10 μM). For the measurement of the nonspecific binding, 100 μM nonradioactive RTX were included used. The reaction was started by incubating tubes at 37° C. during 60 minutes, and stopped by transferring the tubes to ice bath and adding 100 μg of bovine α1-acid glycoprotein (to reduce nonspecific binding). […] The pellet was used to quantify the scintillation counting. The specific binding was calculated as the difference of the total and nonspecific binding and the results were measured as % of specific binding.

For assay [5], the system named is U373 human glioma cell line. Kind of assay: Quantitative videomicroscopy, U373. The note with it: at GI50 concentrations (Table 1). The format is cell-based. As to the method:
FIG. 8. In vitro videomicroscopic analysis of the anticancer effects of 1 and its C12-Wittig derivatives 5 and 13. The U373 human glioma cell line was treated with polygodial, 5 and 13 at their mean GI50 concentrations (Table 1) or left untreated. Videomicroscopy enabled taking pictures of the culture field every 4 minutes. The experiment was conducted once in triplicate. While the morphology of cells treated with 1 was fixed over time, 5 and 13 exerted cytostatic effects on U373 cells.
In an effort to gain insight into possible mechanisms associated with antiproliferative properties of 1 and the C12-Wittig derivatives, the morphological changes in cells treated with these compounds were studied with computer-assisted phase-contrast microscopy (Luchetti et al., 2012) (quantitative videomicroscopy).

The target of assay [6] is T2, CHO cells that overexpress TRPV1 (CHO-TRPV1) (Homo sapiens, UniProt Q8NER1).
T2 construct: expressed in transfected cells; host or cells: CHO cells
T2 sequence (Q8NER1 whole entry): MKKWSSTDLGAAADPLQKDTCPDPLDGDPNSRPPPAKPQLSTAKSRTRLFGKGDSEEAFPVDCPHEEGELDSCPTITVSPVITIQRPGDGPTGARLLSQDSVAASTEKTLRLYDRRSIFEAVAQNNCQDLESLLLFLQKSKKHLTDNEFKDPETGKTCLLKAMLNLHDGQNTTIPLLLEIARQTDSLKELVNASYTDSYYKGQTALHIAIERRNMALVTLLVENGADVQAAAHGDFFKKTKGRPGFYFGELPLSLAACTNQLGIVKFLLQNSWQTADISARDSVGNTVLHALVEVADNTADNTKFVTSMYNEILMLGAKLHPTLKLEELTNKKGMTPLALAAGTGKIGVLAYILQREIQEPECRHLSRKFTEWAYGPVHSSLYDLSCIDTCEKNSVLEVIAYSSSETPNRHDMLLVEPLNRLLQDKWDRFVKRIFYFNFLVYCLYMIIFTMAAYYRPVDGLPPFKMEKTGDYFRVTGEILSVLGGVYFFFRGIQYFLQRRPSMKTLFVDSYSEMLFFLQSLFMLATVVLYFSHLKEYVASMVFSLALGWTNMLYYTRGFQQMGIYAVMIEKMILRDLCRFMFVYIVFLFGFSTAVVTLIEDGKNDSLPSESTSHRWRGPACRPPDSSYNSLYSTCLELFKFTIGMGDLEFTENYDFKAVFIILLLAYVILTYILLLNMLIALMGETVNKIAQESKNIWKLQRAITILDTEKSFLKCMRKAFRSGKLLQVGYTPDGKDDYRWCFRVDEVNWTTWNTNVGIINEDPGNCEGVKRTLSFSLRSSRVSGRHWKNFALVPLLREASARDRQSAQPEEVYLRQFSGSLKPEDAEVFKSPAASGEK
Put plainly: Calcium imaging, CHO-TRPV1. It counts as cell-based. To be noted: for TRPV1 activation (calcium influx), CHO-TRPV1: polygodial 80 μM, P10 4 μM, P3 50 μM. As to the method: CHO cells that overexpress TRPV1 (CHO-TRPV1) were treated with polygodial (80 μM), P10 ([…]), or P3 (50 μM) and calcium influx was measured. Cells were also pre-treated with the TRPV1 antagonist capsazepine (CPZ; 10 μM) to determine if calcium influx via TRPV1 was inhibited. 3 μM ionomycin was used as a positive control. Fluo-4 Direct Calcium Assay Kit and Sweptfield confocal with Nikon Ti were used to visualize calcium influx and the images were analyzed using ImageJ software.

On to `CC1(C)CCC[C@]2(C)[C@@H](C=O)C(C=O)=CC[C@@H]12` [Compound 1, Polygodial], for which the GI50 in assay [1] (Homo sapiens, A549) is 90 µM; in assay [2] (Homo sapiens, Hs 683, 72 h treatment), 95 µM; in assay [3] (Homo sapiens) it was > 85 µM. Also, the “antiproliferative activity in the cancer cell panel” value in assay [3] (72-hour treatment) is given as “ineffective”. In assay [4] (read-out: inhibition of specific binding of [3H]-resiniferatoxin (RTX)), the inhibition at 10 µM was determined as 76%. For the same compound, the “morphological effect by videomicroscopy” value in assay [5] was “strong fixative effects”. The “reversal of calcium influx by capsazepine, CHO-TRPV1” value in assay [6] (CPZ 10 μM pre-treatment) is “reversible by CPZ pre-treatment”. In assay [6], the “TRPV1 activation (calcium influx), CHO-TRPV1” value was “activates TRPV1”.

With `COC(=O)/C=C/C1=CC[C@H]2C(C)(C)CCC[C@]2(C)[C@H]1C=O` [Compound 5], the figures for the concentration for 50% growth inhibition (GI50) in assay [1], in assay [2] (72 h treatment) and in assay [3] were 21 µM, 24 µM and 20 ± 3 µM, respectively. In addition, the “effect on proliferation/viability of all cells, A549” value in assay [1] (apoptosis-resistant A549 NSCLC, concentrations up to 100 μM) is “growth inhibitory properties against most of the cells”. The “resistant populations in growth curves” value in assay [3] (all 5 cultures, concentrations just slightly exceeding GI50, close to 0% cell viability) is recorded as “absence of resistant populations”. In addition, in assay [4] (10 μM), the “inhibition of specific binding of [3H]-resiniferatoxin (RTX)” value is reported as “failed to show any activity”. The “morphological effect by videomicroscopy” value in assay [5] is on record as “inhibited cancer cell proliferation without inducing cell death”. Besides, in assay [6], the “TRPV1 activation (calcium influx), CHO-TRPV1” value was “do not”.

In general, GI50 refers to the concentration giving 50% growth inhibition. The inhibition is the percentage by which the read-out fell short of the control.

Values taken from patent US20180237362A1, “NOVEL POLYGODIAL ANALOGS FOR THE TREATMENT OF CANCER AND OTHER PROLIFERATIVE DISEASES” (THE BOARD OF REGENTS OF THE UNIVERSITY OF TAXAS SYSTEM, priority 2015, published 2018).
